Among the data in ChEMBL document CHEMBL1201862, “PubChem BioAssay data set” (2004) are AC50 and IC50 values, retold here.

In experiment [1] the target is Heat shock protein HSP 90-alpha (Homo sapiens, UniProt P07900). It counts as functional, organism-based.
The target in experiment [2] is T1, Sentrin-specific protease 8 (Homo sapiens, UniProt Q96LD8).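 Further: luminescence read-out of SENP8 inhibition, dose-response confirmation following an ultra-high-throughput screen.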
T1 sequence (Q96LD8 whole entry): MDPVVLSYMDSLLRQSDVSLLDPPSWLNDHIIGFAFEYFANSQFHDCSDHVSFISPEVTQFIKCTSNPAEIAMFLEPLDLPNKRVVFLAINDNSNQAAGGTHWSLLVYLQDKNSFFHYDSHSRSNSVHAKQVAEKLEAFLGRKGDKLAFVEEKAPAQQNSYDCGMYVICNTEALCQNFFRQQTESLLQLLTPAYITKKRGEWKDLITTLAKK
It counts as functional.

The next experiment concerns the target T2, Caspase-3 (Homo sapiens, UniProt P42574).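 Further: Dose-response selectivity test against caspase-3 for candidate inhibitors of sentrin-specific proteases (SENPs).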
T2 sequence (P42574 whole entry): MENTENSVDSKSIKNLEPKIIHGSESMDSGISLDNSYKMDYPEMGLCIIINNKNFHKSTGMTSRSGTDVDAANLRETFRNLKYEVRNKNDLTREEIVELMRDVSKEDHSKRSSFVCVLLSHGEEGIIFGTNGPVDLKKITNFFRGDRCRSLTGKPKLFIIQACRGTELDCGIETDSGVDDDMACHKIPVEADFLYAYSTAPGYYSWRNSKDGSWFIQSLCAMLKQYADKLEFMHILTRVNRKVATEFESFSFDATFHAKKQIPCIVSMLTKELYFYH
It counts as functional.

For experiment [3], the target named is T3, Sentrin-specific protease 6 (Homo sapiens, UniProt Q9GZR1).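 Further: Luminescence-based dose-response confirmatory assay of SENP6 inhibition, following up an ultra-high-throughput screen.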
T3 sequence (Q9GZR1 whole entry): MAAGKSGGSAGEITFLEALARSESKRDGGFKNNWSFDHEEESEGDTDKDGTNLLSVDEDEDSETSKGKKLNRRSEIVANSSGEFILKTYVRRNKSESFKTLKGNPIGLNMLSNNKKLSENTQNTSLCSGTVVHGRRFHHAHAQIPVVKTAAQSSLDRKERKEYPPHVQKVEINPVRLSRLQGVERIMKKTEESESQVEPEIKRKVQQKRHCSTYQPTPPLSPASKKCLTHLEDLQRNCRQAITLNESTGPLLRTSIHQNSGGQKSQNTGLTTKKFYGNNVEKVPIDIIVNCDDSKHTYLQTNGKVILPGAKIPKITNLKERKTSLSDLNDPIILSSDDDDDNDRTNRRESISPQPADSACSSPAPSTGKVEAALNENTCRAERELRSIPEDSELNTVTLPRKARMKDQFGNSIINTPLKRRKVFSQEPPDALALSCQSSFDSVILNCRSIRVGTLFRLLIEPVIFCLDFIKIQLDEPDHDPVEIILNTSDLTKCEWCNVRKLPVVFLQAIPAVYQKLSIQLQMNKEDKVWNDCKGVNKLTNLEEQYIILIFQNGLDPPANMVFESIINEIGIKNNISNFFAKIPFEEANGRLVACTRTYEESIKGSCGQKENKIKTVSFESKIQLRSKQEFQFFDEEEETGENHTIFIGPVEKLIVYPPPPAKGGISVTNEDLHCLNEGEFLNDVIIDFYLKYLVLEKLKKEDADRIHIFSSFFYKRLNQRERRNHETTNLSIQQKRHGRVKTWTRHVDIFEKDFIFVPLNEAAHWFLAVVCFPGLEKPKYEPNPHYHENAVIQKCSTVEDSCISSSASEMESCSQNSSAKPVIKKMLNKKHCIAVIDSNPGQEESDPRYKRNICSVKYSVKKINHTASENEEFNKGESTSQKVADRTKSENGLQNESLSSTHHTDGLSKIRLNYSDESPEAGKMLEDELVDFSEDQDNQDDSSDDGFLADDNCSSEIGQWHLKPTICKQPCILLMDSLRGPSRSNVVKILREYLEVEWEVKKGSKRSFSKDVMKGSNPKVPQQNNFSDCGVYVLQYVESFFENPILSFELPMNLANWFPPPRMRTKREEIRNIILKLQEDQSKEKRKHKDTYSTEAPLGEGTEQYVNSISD
It counts as functional.

Experiment [4] concerns the target T4, 1-phosphatidylinositol 4,5-bisphosphate phosphodiesterase gamma-1 (Homo sapiens, UniProt P19174).
T4 sequence (P19174 whole entry): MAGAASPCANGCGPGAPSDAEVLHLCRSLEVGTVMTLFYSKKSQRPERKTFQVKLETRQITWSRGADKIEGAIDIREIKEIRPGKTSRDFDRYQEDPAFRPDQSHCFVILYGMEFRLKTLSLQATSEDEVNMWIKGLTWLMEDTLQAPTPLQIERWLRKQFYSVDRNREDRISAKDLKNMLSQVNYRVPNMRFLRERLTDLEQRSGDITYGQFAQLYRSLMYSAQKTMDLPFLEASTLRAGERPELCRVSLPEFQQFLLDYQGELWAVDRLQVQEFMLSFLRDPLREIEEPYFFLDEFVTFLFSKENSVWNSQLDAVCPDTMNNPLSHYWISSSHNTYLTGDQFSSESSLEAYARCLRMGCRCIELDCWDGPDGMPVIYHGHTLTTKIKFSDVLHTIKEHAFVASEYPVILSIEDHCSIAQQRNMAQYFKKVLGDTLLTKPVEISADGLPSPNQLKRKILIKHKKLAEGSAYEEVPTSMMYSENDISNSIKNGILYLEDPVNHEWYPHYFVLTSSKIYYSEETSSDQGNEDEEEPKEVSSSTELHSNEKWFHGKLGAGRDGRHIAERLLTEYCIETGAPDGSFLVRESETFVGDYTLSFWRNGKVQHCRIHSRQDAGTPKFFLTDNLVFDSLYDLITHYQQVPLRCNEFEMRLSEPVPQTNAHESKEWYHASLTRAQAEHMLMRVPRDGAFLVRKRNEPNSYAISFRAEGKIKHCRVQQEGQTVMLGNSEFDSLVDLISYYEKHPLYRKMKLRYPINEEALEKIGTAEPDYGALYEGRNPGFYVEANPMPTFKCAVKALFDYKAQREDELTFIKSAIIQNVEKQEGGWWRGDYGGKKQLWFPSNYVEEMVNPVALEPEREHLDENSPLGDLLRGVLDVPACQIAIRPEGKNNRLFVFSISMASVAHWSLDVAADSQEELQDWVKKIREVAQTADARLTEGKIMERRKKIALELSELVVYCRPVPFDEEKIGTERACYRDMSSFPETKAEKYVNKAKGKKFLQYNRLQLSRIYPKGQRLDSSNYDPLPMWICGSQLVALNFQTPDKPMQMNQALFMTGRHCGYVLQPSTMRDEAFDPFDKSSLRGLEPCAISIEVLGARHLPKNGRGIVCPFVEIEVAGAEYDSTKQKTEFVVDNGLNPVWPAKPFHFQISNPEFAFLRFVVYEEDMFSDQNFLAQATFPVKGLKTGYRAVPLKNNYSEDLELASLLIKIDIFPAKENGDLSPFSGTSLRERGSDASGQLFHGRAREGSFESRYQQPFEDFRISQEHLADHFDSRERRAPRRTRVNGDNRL
In words: Counterscreen for inhibitors of phospholipase C isozymes (PLC-B3): Fluorescence-based biochemical high throughput dose response assay to identify inhibitors of phospholipase C isozymes (PLC-gamma1). For orientation: A counterscreen serves to expose hits that act by an unwanted route or on another target.

Activity calls are given as the source filed them. For most assays here, no stated cut-off is given here; in the data, actives have a measured IC50 and inactives only a lower limit. Where only a bound is given, the exact number is not on record here.

With `COC(=O)C1CN(C#N)N(c2ccc(Cl)cc2)C12c1ccccc1-c1ccccc12` (stereo not given), in experiment [1], the AC50 (in general, the concentration giving half of the maximal activity seen) was 2.75 µM (active).
For `CN(C)S(=O)(=O)Oc1cccc(C(=O)Nc2ccc(Cl)c(Cl)c2)c1`, the IC50 (commonly the concentration that inhibits the measured activity by half) was 19.6 µM (active) in experiment [2], 52.2 µM (active) at Caspase-3 and 13.6 µM (active) in experiment [3].
For the molecule `Cc1ccc2[nH]c(/C(C#N)=C/c3ccc(O)c(O)c3)nc2c1`, the IC50 in experiment [2] is 24.3 µM (active); on Caspase-3, 28.1 µM (active); in experiment [3], 27.9 µM (active).
For `O=C1NC(=S)S/C1=C\C=C\c1ccc([N+](=O)[O-])o1`, the IC50 in experiment [4] was > 122 µM (inactive). The AC50 in experiment [1] is 1.73 µM (active).
Take `O=C(NN1C(=O)CSC1=S)C(=O)NN1C(=O)CSC1=S`: the IC50 in experiment [4] is 4.36 µM (active).
